Assay [1] deals with T1, VEGFR-2 extracellular domain (Met 1-Glu 764) (Homo sapiens, UniProt P35968).
T1 construct: VEGFR-2 extracellular domain (Met 1-Glu 764); purchased Creative BioMart USA KDR-6966H
The assay is described as follows: Surface plasmon resonance binding to VEGFR-2 extracellular domain. The conditions noted are these: for Binding affinity (Kd) to VEGFR-2 as determined by SPR: extracellular domain, one-to-one binding model. How it is done: (§1) Surface plasmon resonance (SPR) assays were carried out to determine the binding affinities of the VEGF mimic sequences toward the extracellular domains of VEGFR-1 and VEGFR-2 (FIGS. 13 and 14).
(§2) Binding kinetics of VEGF mimics to VEGFR-1 were measured by surface plasmon resonance (SPR) using a Biacore T200 (General Electric Co.). […] protein extracellular domain (Met 1-Asn 756) (FLT1-3809H, Creative BioMart USA) was covalently coupled to CMS chip following manufacturer's instructions. Samples were prepared in RBS-EP+ buffer (pH 7.4) at different concentration and flowed over the sensor chip to interact with the immobilized protein, followed by the running buffer. The dissociation data was collected, and a different concentration was assayed after redundant samples were removed from the protein by treating with KCl (1 M). The final binding kinetics was obtained by fitting using the T200 software with a one-to-one binding model. Binding affinities of mimic sequences to VEGFR-2 were measured using VEGFR-2 extracellular domain (Met 1-Glu 764) (KDR-6966H, Creative BioMart USA) in a similar fashion.

The target in assay [2] is T2, VEGFR-1 extracellular domain (Met 1-Asn 756) (Homo sapiens, UniProt P17948).
T2 construct: VEGF-1 protein extracellular domain (Met 1-Asn 756); purchased Creative BioMart USA FLT1-3809H
The assay can be described thus: Surface plasmon resonance binding to VEGFR-1 extracellular domain. The conditions noted are these: one-to-one binding model. On the procedure: as §1, §2
Background: In SPR one partner is held on a chip, and binding of the other changes the refractive index at the surface.

The test system of assay [3] is HUVECs. The assay is described as follows: Capillary tube formation assay. In kind it is cell-based, human. The conditions noted are these: 2 μM, in the presence of VEGF165 (50 ng/mL), 24 h. How it is done: The ultimate effect of angiogenesis is the formation of vasculature that can support healing, survival, and proliferation. Next, the inventors used HUVECs to investigate the effect of the AA peptide sequences on the formation of capillary-like tube structures in vitro in the presence of VEGF165. […] Nutrient starved HUVECs, for 24 h in 0.5% FBS (sEBM) endothelial basal medium (EBM), were harvested and resuspended in 10% FBS (mEGM) endothelial growth medium. Cells were then seeded in 48 well plate coated with basement membrane extract (BME). To prepare the plates, Costar48 well culture plates were coated with basement membrane (Corning Matrigel Basement Membrane Matrix LDEV-free, 354234) and incubated for 30 min at 37° C. 5×10^4 cells were seeded in each well and treated with VEGF mimic sequences and/or VEGF165, or left untreated. Formation or lack thereof of tube-like structures was monitored over a 24 h period with a Nikon Inverted Microscope ECLIPSE Ti-U.

A further assay addresses T3, VEGFR-1 (Homo sapiens, UniProt P17948).
T3 construct: immunofluorescence studies were carried out using HUVECs and antibodies specific to each receptor; endogenous in cells; host or cells: HUVEC
The assay is described as follows: Immunofluorescence binding assay with anti-VEGFR-1 antibody. It is filed as cell-based. To be noted: HUVECs treated with 10 μM, compared to control. On the procedure: (§3) On the basis of the assays conducted, the inventors speculated that distinct cell signaling and angiogenic response are due to the sequences V2 and V3 binding to different VEGFR subtypes. To further characterize the binding profiles of V2 and V3 to VEGFR-1 and VEGFR-2, immunofluorescence studies were carried out using HUVECs and antibodies specific to each receptor. Cells treated with V2 and V3 (10 μM) were fixed and treated with anti-VEGFR-1 and anti-VEGFR-2 antibodies, followed by FITC-labeled secondary antibody and a DAPI counterstain. […] HUVEC cells grown in m-Dish 35 mm, high Glass Bottom (#81158 Ibidi) were treated with V2 and V3 overnight at 37° C. Cells were then washed with TBST twice and fixed with 4% formaldehyde solution (Fisher Chemical) for 20 min at room temperature. This was followed by TBST wash twice and blocking with TBST—5% BSA blocking solution for 1 h at room temperature. After washing the cells with TBST three times, the cells were incubated with anti-VEGFR-1 antibody (Proteintech) and anti-VEGFR-2 antibody (Invitrogen) overnight at 4° C. […] A Nikon fluorescence microscope was used for imaging cells and image analysis was done with Image J software (ImageJ 5.53e, National Institute of Health, USA).

The test system of assay [4] is HUVECs. The assay is described as follows: Transwell cell migration assay. The conditions noted are these: 10 μM, in the presence of VEGF165 (50 ng/mL), 12 h. In kind it is cell-based, human. The text has this: Endothelial cell migration is an essential component of angiogenesis mediated by the VEGF pathway and can be used to assess the effect of drugs on the VEGF pathway. A Transwell migration assay was used to test the effect of the mimic sequences on the migration of human umbilical endothelial cells (HUVECs). […] Given the findings that V2 has a much stronger binding affinity for VEGFR1 than VEGFR2 (FIG. 12), the inventors speculated that this stimulatory effect may be due to its specific binding to VEGFR1, the decoy receptor. It is plausible that inhibition of VEGF-A binding to VEGFR-1 leads to an increased level of VEGF-A to bind and activate VEGFR-2, an indirect activation of the main angiogenic receptor.67 Cell migration assay was performed in triplicates on Transwell permeable support, 8.0 μm pore (Corning, USA). […] Migrated cells at the bottom of the membrane were fixed with 4% paraformaldehyde and stained with Crystal Violet at 37° C. for 20 min and 10 min respectively and counted with Nikon Inverted Microscope ECLIPSE Ti-U.

The target of the next assay is T4, VEGFR-2 (Homo sapiens, UniProt P35968).
T4 construct: endogenous in cells; host or cells: HUVEC
The assay can be described thus: Immunofluorescence binding assay with anti-VEGFR-2 antibody. It is filed as cell-based. The conditions noted are these: HUVECs treated with 10 μM, compared to control. How it is done:
as §3

In assay [5] the test system is HUVECs. The assay is described as follows: Wound healing (scratch-wound motility) assay. It is filed as cell-based, human. To be noted: 10 μM, in the presence of VEGF165 (50 ng/mL), 24 h. On the procedure: Wound healing is facilitated by the VEGF pathway's effect on cell migration and proliferation.14 The effect of the helical mimic sequences on cell migration and invasion was tested on HUVECs in the presence of VEGF165 using a scratch-wound motility assay. […] HUVEC cells (10^5) were seeded on a 12 well tissue culture plate and allowed to grow for 12 h. The attached cells were then scratched with a sterile […] pipette tip and treated with mimic sequences (10 μM) and/or VEGF165 (50 ng/mL) in serum free medium. […] The wound widths were measured by ImageJ (version 1.50).

The subject of a further assay is Akt (P-AKT). The assay can be described thus: Western blot of Akt phosphorylation in HUVEC lysates. It is filed as cell-based, human. The conditions noted are these: with VEGF-A stimulation. On the procedure:
(§4) The effect of VEGF-mimicking sequences on VEGF-A-mediated activation of Akt, a key VEGF downstream signal,^68 and VEGFR-2 was then examined by Western blot (FIG. 8). […] However, the activation of the VEGF pathway by V2 and QK is dependent on the presence of VEGF-A (FIG. 8E). […] HUVECs (1×10^6) were starved for 24 h and treated with a V1, V2, V3 and QK in the presence or absence of VEGF-A165 at 37° C. for 24 h. Cells were then lysed with a lysis buffer containing Protease and Phosphatase Inhibitor (Thermo Scientific) to obtain total cellular proteins, and the amount of protein was quantified using the BCA Protein Assay Kit (Thermo Scientific, Waltham, MA). Proteins were then denatured by boiling at 100° C. for 10 min in the sample buffer and separated by electrophoresis on 10% SDS-[…] minigels. Target proteins were transferred to polyvinylidene difluoride membranes and blocked with 5% BSA in TBST solution for 1 h and then washed three times with TBST (5 min each time). […]
On the technique in general: A western blot detects proteins with antibodies after separation by electrophoresis.

A further assay concerns VEGFR-2 (P-VEGFR-2). The assay is described as follows: Western blot of VEGFR-2 phosphorylation in HUVEC lysates. In kind it is cell-based, human. The conditions noted are these: with VEGF-A stimulation. How it is done:
as §4

T1 sequence (P35968 20-764): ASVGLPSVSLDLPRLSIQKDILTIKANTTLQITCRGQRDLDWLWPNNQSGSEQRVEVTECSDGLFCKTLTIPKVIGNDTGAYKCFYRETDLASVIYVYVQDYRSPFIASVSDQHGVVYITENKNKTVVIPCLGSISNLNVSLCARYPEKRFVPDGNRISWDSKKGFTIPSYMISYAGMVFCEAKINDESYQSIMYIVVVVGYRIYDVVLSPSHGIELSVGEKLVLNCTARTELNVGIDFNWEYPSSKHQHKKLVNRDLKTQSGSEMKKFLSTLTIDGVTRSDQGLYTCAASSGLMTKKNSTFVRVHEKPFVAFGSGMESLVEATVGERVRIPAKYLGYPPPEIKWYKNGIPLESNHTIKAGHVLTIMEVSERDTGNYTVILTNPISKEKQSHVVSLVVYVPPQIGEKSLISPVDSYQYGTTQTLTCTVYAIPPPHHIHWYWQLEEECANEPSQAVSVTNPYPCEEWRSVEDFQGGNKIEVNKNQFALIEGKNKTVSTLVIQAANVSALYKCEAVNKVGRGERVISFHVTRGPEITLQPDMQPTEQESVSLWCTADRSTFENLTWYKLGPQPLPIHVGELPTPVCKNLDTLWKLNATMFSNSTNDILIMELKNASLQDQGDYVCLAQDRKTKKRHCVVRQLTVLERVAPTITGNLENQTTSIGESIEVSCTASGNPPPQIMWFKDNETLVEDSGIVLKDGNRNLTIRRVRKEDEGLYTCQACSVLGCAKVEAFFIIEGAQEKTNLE
T2 sequence (P17948 27-756): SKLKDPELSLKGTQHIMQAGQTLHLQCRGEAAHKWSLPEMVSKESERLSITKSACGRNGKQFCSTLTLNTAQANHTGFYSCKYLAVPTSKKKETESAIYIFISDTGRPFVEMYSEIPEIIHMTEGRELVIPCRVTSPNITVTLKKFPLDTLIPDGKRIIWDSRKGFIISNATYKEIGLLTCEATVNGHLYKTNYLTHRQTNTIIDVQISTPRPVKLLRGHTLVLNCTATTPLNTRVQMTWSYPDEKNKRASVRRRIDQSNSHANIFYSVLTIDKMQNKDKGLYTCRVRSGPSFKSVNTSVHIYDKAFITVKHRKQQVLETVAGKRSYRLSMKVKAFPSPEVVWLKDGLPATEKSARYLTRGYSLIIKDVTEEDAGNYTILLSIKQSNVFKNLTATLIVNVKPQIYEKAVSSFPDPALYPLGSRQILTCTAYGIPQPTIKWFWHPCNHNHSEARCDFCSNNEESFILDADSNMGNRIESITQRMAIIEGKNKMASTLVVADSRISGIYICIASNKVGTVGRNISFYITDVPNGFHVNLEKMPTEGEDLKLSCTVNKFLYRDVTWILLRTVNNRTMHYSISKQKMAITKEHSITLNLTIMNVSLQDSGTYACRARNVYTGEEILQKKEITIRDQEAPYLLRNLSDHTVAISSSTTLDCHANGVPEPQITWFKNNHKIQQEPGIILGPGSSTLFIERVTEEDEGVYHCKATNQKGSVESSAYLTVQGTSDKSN
T3 sequence (P17948 27-1338): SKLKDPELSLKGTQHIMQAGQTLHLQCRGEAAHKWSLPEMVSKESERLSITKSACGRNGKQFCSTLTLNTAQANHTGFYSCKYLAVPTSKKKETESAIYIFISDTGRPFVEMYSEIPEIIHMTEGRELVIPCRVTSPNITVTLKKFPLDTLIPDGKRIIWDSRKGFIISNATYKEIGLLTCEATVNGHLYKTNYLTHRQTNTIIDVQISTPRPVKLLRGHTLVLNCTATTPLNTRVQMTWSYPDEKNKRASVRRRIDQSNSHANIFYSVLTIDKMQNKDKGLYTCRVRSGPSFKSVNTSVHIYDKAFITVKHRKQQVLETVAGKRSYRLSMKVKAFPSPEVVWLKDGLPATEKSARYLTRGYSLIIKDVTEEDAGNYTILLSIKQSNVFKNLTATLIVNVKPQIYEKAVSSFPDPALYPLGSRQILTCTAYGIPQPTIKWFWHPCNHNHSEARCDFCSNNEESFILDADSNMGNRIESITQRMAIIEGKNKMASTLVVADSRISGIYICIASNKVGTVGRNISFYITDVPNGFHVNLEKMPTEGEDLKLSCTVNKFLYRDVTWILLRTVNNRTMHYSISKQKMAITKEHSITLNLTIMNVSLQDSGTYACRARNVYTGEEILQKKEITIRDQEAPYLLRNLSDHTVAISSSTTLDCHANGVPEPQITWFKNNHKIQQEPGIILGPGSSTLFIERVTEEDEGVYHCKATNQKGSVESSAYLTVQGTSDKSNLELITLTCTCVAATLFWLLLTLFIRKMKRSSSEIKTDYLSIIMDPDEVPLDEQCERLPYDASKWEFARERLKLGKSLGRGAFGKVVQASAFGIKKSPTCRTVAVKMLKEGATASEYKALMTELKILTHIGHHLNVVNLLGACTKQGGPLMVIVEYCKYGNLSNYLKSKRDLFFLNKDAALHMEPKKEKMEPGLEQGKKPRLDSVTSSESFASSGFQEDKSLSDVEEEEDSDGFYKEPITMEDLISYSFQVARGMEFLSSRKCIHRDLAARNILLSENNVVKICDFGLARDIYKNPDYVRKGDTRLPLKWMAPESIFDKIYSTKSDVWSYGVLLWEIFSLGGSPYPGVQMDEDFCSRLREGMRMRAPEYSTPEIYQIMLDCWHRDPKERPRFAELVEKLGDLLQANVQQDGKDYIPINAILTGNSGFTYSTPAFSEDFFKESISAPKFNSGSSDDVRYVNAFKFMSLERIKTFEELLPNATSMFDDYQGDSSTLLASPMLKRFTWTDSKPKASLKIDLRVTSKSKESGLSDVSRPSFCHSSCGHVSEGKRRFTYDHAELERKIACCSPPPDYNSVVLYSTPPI
T4 sequence (P35968 20-1356): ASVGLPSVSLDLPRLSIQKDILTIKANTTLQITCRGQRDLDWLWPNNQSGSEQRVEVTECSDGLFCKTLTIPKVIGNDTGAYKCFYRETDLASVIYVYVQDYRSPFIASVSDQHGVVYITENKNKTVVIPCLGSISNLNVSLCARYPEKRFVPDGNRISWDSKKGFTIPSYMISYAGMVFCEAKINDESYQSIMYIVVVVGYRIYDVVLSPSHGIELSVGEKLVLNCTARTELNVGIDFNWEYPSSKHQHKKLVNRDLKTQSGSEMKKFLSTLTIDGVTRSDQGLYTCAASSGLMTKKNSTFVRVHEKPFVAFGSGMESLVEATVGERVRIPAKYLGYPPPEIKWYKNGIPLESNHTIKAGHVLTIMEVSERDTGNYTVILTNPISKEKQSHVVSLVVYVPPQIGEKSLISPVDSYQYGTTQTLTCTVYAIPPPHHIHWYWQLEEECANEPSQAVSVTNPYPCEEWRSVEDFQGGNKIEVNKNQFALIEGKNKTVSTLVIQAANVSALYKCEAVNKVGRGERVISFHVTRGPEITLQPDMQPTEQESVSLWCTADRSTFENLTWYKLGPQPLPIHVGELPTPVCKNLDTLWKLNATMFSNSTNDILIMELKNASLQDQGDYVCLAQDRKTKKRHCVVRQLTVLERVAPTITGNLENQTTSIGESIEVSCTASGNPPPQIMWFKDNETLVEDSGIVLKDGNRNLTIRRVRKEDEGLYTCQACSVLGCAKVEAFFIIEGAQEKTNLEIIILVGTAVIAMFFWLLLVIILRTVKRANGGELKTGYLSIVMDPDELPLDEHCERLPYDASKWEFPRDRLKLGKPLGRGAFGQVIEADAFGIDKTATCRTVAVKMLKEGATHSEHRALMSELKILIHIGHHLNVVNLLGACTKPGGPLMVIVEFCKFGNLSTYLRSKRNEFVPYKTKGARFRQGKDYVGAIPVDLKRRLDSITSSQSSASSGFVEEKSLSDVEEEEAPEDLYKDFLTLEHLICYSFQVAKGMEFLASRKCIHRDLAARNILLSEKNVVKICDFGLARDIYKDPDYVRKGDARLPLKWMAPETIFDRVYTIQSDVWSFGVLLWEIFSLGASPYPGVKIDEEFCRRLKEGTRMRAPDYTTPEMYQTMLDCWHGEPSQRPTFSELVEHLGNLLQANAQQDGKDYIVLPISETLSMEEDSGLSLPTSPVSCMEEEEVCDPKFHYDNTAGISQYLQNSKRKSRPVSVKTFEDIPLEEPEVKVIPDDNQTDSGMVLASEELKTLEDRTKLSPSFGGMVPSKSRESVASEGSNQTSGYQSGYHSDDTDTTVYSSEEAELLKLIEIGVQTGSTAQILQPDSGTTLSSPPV

For the compound `CC(=O)N[C@@H](CCC(=O)O)CN(CC(=O)N[C@@H](CC(C)C)CN(CC(=O)N[C@@H](Cc1ccccc1)CN(CC(=O)N[C@@H](CCC(=O)O)CN(CC(=O)N[C@@H](Cc1ccc(O)cc1)CN(CC(=O)N[C@@H](CCCCN)CN(CC(=O)N[C@@H](Cc1ccc(O)cc1)CN(CC(=O)N[C@@H](C)CN(CC(N)=O)S(C)(=O)=O)S(C)(=O)=O)S(C)(=O)=O)S(=O)(=O)CCN)S(=O)(=O)CC(C)C)S(=O)(=O)CC(C)C)S(=O)(=O)CCN)S(=O)(=O)CCN` [V2], the “Binding affinity (Kd) to VEGFR-2 as determined by SPR” value in assay [1] was “good binding affinities”. Further, the “Binding affinity (Kd) to VEGFR-1 as determined by SPR” value in assay [2] is listed as “submicromolar binding affinity”.
Take `CC(=O)N[C@@H](CCC(=O)O)CN(CC(=O)N[C@@H](CC(C)C)CN(CC(=O)N[C@@H](Cc1c[nH]c2ccccc12)CN(CC(=O)N[C@@H](CCC(=O)O)CN(CC(=O)N[C@@H](Cc1ccc(O)cc1)CN(CC(=O)N[C@@H](CCCCN)CN(CC(=O)N[C@@H](Cc1ccc(O)cc1)CN(CC(=O)N[C@@H](C)CN(CC(N)=O)S(C)(=O)=O)S(C)(=O)=O)S(C)(=O)=O)S(=O)(=O)CCN)S(=O)(=O)CC(C)C)S(=O)(=O)CC(C)C)S(=O)(=O)CCN)S(=O)(=O)CCN` [V3]: in the assay on HUVECs [3], the Capillary tube formation result is on record as “substantial inhibition of capillary tube formation”. The “Fluorescence with anti-VEGFR-1 antibody” value on VEGFR-1 was “almost no effect on intensity of fluorescence”. In the assay with HUVECs [4], the “Number of HUVECs migrating (Transwell)” value was “significantly lowered”. Besides, the “Fluorescence with anti-VEGFR-2 antibody” value at VEGFR-2 was “significant reduction of fluorescence”. The “Cell migration in wound healing assay” value in the assay on HUVECs [5] was “virtually completely blocked wound motility”. The “Selectivity for VEGFR2 (SPR binding)” value in assay [1] (VEGFR2 over VEGFR1) was “remarkable selectivity”. Moreover, in assay [1], the “Binding affinity (Kd) to VEGFR-2 as determined by SPR” value is “submicromolar binding affinity”. Further, the “Inhibition of phosphorylation of Akt at low concentration” value in the assay on Akt (P-AKT) (100 nM) is “potent inhibition”. Also, the “Phosphorylation of Akt (P-AKT)” value in the assay on Akt (P-AKT) (0.1, 0.5, 1, 10 μM) is recorded as “dose-dependent inhibition of phosphorylation”. Further, in assay [2], the “Binding affinity (Kd) to VEGFR-1 as determined by SPR” value is given as “good binding affinities”. Besides, in the assay with VEGFR-2 (P-VEGFR-2) (100 nM), the “Inhibition of phosphorylation of VEGFR-2 at low concentration” value is listed as “potent inhibition”. For the same compound, the “Phosphorylation of VEGFR-2 (P-VEGFR-2)” value with VEGFR-2 (P-VEGFR-2) (0.1, 0.5, 1, 10 μM) is recorded as “dose-dependent inhibition of phosphorylation”.

The record behind these values is US11866474B2, “Modulating angiogenesis by proteomimetics of vascular endothelial growth factor” (UNIVERSITY OF SOUTH FLORIDA, priority 2021, dated 2024).
